Data reported in ChEMBL document CHEMBL4411333, “Optimization of Fused Bicyclic Allosteric SHP2 Inhibitors” (J Med Chem, 2019).
pIC50: −log10 of the molar value. Calls of active or inactive are those of the source. The calls are words filed in the database; no cut-off is given here.

Tests used:
KYSE-520 cell line = test: Antiproliferative activity against human KYSE520 cells after 5 days by Celltiter-Glo reagent-based assay; details: KYSE-520, 5 days
[1] = molecular target: T1, Tyrosine-protein phosphatase non-receptor type 11 (Homo sapiens, UniProt Q06124); test: Inhibition of SHP2 in human KYSE520 cells assessed as suppression of ERK phosphorylation after 2 hrs by AlphaScreen SureFire Phospho-ERK1/2 assay; format: cell-based
T1 sequence (Q06124 whole entry): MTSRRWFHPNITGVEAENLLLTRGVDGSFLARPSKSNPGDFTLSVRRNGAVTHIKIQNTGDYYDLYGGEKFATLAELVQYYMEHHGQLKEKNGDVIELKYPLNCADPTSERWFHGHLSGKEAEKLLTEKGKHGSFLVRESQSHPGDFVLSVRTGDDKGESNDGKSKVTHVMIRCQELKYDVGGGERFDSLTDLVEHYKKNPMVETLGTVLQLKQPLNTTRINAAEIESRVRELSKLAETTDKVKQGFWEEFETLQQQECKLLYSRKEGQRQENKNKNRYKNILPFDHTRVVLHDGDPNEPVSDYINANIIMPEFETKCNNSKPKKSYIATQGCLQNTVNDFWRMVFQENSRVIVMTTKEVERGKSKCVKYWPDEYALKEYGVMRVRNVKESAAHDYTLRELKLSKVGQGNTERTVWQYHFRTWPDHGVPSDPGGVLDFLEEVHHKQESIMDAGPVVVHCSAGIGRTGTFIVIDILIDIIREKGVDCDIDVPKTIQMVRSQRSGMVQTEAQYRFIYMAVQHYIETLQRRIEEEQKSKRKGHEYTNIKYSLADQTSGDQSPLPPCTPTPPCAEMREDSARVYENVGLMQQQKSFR

[2] = molecular target: Voltage-gated inwardly rectifying potassium channel KCNH2 (Homo sapiens, UniProt Q12809)
Voltage-gated inwardly rectifying potassium channel KCNH2, sequence (Q12809 whole entry): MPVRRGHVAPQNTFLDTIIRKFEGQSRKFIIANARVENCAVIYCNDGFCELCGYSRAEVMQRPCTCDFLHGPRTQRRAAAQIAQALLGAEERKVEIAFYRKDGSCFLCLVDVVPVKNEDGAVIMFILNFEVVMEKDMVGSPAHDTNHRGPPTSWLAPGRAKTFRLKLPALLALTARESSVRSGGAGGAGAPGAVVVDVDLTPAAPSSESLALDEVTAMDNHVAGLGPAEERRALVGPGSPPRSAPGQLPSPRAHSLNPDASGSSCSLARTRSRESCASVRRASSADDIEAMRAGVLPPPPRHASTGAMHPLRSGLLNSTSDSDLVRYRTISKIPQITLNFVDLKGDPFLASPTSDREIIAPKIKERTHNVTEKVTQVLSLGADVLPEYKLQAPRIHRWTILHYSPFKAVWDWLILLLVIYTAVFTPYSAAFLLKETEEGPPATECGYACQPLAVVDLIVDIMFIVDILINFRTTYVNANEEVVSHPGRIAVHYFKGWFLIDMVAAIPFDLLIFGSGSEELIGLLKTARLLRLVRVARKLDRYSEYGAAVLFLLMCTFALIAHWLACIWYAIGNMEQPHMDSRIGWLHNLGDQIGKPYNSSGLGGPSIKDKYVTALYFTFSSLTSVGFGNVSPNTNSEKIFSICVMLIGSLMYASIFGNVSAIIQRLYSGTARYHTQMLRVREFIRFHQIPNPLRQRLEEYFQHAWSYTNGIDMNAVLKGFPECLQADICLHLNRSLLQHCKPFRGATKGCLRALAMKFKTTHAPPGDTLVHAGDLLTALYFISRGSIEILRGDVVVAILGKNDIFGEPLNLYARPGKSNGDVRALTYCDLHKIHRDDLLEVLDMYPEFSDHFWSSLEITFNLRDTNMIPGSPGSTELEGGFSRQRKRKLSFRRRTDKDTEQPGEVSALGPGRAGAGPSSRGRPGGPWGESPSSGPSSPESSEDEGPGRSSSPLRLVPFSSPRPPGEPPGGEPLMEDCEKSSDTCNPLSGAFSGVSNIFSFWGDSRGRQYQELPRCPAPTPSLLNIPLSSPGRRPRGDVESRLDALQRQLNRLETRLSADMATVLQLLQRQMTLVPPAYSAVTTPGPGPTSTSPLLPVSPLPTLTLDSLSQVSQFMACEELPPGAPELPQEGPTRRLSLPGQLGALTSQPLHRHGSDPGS

[3] = molecular target: T2, Tyrosine-protein phosphatase non-receptor type 11 (Homo sapiens) (UniProt Q06124); test: Stabilization of SHP2 (unknown origin) assessed as thermal denaturation by measuring change in melting temperature at 100 uM by differential scanning fluorimetry
T2 sequence (whole entry): T1 sequence (Q06124 whole entry)

[4] = molecular target: T2, Tyrosine-protein phosphatase non-receptor type 11 (Homo sapiens); test: Inhibition of SHP2 (unknown origin) at 40 uM
Mus musculus [5] = species: Mus musculus; details: 100 mg/kg
Mus musculus [6] = species: Mus musculus; details: 100 mg/kg; remark: listed apart in the source
[7] = Volume of distribution in Sprague-Dawley rat at 1 mg/kg, iv or 5 mg/kg, po; format: ADME, organism-based; details: in vivo
[8] = Terminal half life in Sprague-Dawley rat at 1 mg/kg, iv or 5 mg/kg, po; format: ADME, organism-based; details: in vivo, read-out: beta t1/2 (converted)
[9] = Oral bioavailability in Sprague-Dawley rat at 5 mg/kg; format: ADME, organism-based; details: in vivo
[10] = molecular target: T1, Tyrosine-protein phosphatase non-receptor type 11; test: Inhibition of human 6His-tagged SHP2 (2 to 593 residues) expressed in Escherichia coli BL21 Star (DE3) using DiFMUP as substrate preincubated for 30 mins followed by substrate addition by fluorescence assay
[11] = Clearance in rat liver microsomes; format: ADME, Microsome; details: read-out: CLH
[12] = Clearance in Sprague-Dawley rat at 1 mg/kg, iv or 5 mg/kg, po relative to hepatic extraction; format: ADME, organism-based; details: in vivo
[13] = Half life in rat liver microsomes; format: ADME, Microsome

C[C@@H]1OCC2(CCN(c3nc4[nH]nc(-c5ccncc5)c4c(=O)n3C)CC2)[C@@H]1N
pIC50 (KYSE-520 cell line): 5.90 | pIC50 [1]: 6.89 | pIC50 [2]: < 4.52

CN(C)Cc1ccc(-c2cc3onc(-c4ccccc4Cl)c3c(=O)n2C)cc1
ΔTm [3]: 0.67 °C | inhibition [4]: 31%

Cn1c(N2CCC3(CC2)COC[C@H]3N)nc2[nH]nc(-c3cccc(Cl)c3Cl)c2c1=O
pIC50 (KYSE-520 cell line): 5.76 | pIC50 [1]: 6.91

C[C@@H]1OCC2(CCN(c3nc4[nH]nc(-c5cccc(Cl)c5Cl)c4c(=O)n3C)CC2)[C@@H]1N
inhibition (Mus musculus [5]): Active | inhibition (Mus musculus [6]): Active | Vd [7]: 10.5 L/kg | pIC50 (KYSE-520 cell line): 6.78 | half-life [8]: 4.6 h | bioavailability [9]: 51%

Cn1c(N2CCC3(CCC[C@H]3N)CC2)nc2n[nH]c(-c3cccc(Cl)c3Cl)c2c1=O
pIC50 (KYSE-520 cell line): 6.33 | pIC50 [10]: 7.51 | pIC50 [1]: 7.52 | pIC50 [2]: 6.60

C[C@@H]1OCC2(CCN(c3nc4[nH]nc(Sc5ccnc(N)c5Cl)c4c(=O)n3C)CC2)[C@@H]1N
pIC50 (KYSE-520 cell line): 6.14 | pIC50 [1]: 7.02 | pIC50 [2]: < 4.52

Cc1nc(N)ccc1-c1n[nH]c2nc(N3CCC4(CC3)CO[C@@H](C)[C@H]4N)n(C)c(=O)c12
pIC50 (KYSE-520 cell line): 6.18 | pIC50 [1]: 7.42 | pIC50 [2]: 5.18

Cc1ccc(-c2cc(C(=O)O)c3c(-c4ccc(Br)cc4)n[nH]c3n2)cc1
ΔTm [3]: 0.62 °C | inhibition [4]: 30%

C[C@@H]1OCC2(CCN(c3cnc4c(-c5cccc(Cl)c5Cl)n[nH]c4n3)CC2)[C@@H]1N
pIC50 (KYSE-520 cell line): 6.34

C[C@@H]1OCC2(CCN(c3nc4[nH]nc(-c5ccnc(NC6CCC6)c5Cl)c4c(=O)n3C)CC2)[C@@H]1N
pIC50 (KYSE-520 cell line): 6.42 | pIC50 [10]: 6.46 | pIC50 [1]: 6.59 | pIC50 [2]: 5.72

C[C@@H]1OCC2(CCN(c3cnc4c(-c5cccc(Cl)c5Cl)c[nH]c4n3)CC2)[C@@H]1N
pIC50 [1]: 6.32 | pIC50 [2]: 8.15

CNc1nccc(-c2n[nH]c3nc(N4CCC5(CC4)CO[C@@H](C)[C@H]5N)n(C)c(=O)c23)c1Cl
pIC50 (KYSE-520 cell line): 6.43 | pIC50 [10]: 7.26 | pIC50 [1]: 7.66 | pIC50 [2]: < 4.52

C[C@@H]1OCC2(CCN(c3nc4[nH]nc(-c5ccnc(N)c5Cl)c4c(=O)n3C)CC2)[C@@H]1N
pIC50 (KYSE-520 cell line): 5.92 | pIC50 [10]: 7.49 | pIC50 [1]: 6.99 | pIC50 [2]: < 4.52

C[C@@H]1OCC2(CCN(c3nc4[nH]nc(-c5ccnc(NC6CC6)c5Cl)c4c(=O)n3C)CC2)[C@@H]1N
microsomal CLint [11]: 26.1 µL/min/mg | Vd [7]: 3.9 L/kg | pIC50 (KYSE-520 cell line): 6.44 | CL [12]: 83% | half-life [13]: 0.887 h | half-life [8]: 2.7 h | bioavailability [9]: 2%

Cn1c(N2CCC(C)(CN)CC2)nc2[nH]nc(-c3cccc(Cl)c3Cl)c2c1=O
pIC50 (KYSE-520 cell line): 4.87

C[C@@H]1OCC2(CCN(c3nc4[nH]nc(-c5ccnc(Cl)c5Cl)c4c(=O)n3C)CC2)[C@@H]1N
pIC50 (KYSE-520 cell line): 5.59
